In brackets after ≈: the same amount, converted by molar mass. Read-outs that look alike come from different tables or passages of the source.
Columns and labels:
B. cepacia = test: Levofloxacin MIC against B. cepacia; type: cell-based; details: Burkholderia cepacia
stable CF patients = test: Phase 2 study: safety, adverse events, discontinuation; type: in vivo, human
Method: The following dosage regimens (as nebulizer loaded doses) were evaluated: 120 mg QD (daily); 240 mg QD (daily); and 240 mg BID (twice daily).
Patients were assessed on Day 1, 7, 14, and 28, and then up to 28 days after completion of study drug, namely, Days 42 and 56. The end of the study was defined as the last visit of the last patient.
Adverse events and drug intolerability from Day 1 through the end of study were evaluated.

C[C@H]1COc2c(N3CCN(C)CC3)c(F)cc3c(=O)c(C(=O)O)cn1c23 [Levofloxacin, levofloxacin]
MIC (B. cepacia): > 128 µg/mL
MIC (B. cepacia; five strains tested in mouse model, read-out: MICs of five B. cepacia strains): 0.25 to 8 µg/mL (≈ 0.692 to 22.1 µM)
MIC (B. cepacia; strain BC1012, read-out: MIC): 4 µg/mL (≈ 11.1 µM)
MIC (B. cepacia; strain BC1013, read-out: MIC): 0.25 µg/mL (≈ 0.692 µM)
MIC (B. cepacia; strain BC1014, read-out: MIC): 1 µg/mL (≈ 2.77 µM)
MIC (B. cepacia; strain BC1020, read-out: MIC): 8 µg/mL (≈ 22.1 µM)
MIC (B. cepacia; strain BC1021, read-out: MIC): 8 µg/mL (≈ 22.1 µM)
Discontinuation from study, primary reason adverse event, patients (%) (stable CF patients; 120 mg QD): 1 (2.6%)
Study drug discontinuation, adverse event, patients (%) (stable CF patients; 120 mg QD): 3 (7.9%)
Study drug discontinuation, patients (%) (stable CF patients; 120 mg QD): 3 (7.9%)
Discontinuation from study, primary reason adverse event, patients (%) (stable CF patients; 240 mg BID): 2 (5.1%)
Study drug discontinuation, adverse event, patients (%) (stable CF patients; 240 mg BID): 2 (5.1%)
Study drug discontinuation, patients (%) (stable CF patients; 240 mg BID): 2 (5.1%)
Discontinuation from study, primary reason adverse event, patients (%) (stable CF patients; 240 mg QD): 1 (2.7%)
Study drug discontinuation, adverse event, patients (%) (stable CF patients; 240 mg QD): 1 (2.7%)
Study drug discontinuation, patients (%) (stable CF patients; 240 mg QD): 1 (2.7%)
Significant adverse events (stable CF patients; Day 1 through the end of study): No significant adverse events were reported

— patent US10792289B2 (Horizon Orphan LLC, priority 2009, dated 2020)
